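Exposure lasted 48 hours, with cells grown in 96-well plates and compounds tested at five concentrations. Here, GI50 denotes the concentration required for 50% inhibition of growth.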 Active and inactive are the calls of the source. Cut-off read from the data, not from the text of the source: active = GI50 up to about 1.1 µM and inactive = higher. Where a SMILES comes first, the peptide text is derived from it. The star is where a group is joined. Boc = CC(C)(C)OC(=O)*
Key:
Experiment in all cases: NCI-60 cell line screen, 48 h
[1] = system: COLO 205
[2] = system: EKVX
[3] = system: HCT-116
[4] = system: HOP-62
[5] = system: Hs-578T
[6] = system: IGROV-1
[7] = system: K562
[8] = system: MDA-MB-231
[9] = system: MDA-MB-435
[10] = system: NCI-H522
[11] = system: NCI/ADR-RES
[12] = system: PC-3
[13] = system: SF-295
[14] = system: SK-OV-3
[15] = system: SNB-75
[16] = system: U-251
[17] = system: UACC-62
[18] = system: BT-549
[19] = system: OVCAR-4
[20] = system: SF-539

Measured: GI50

CCSc1n/c(=C\c2ccco2)c2nncn12
inactive: [1] > 100 µM | [2] > 100 µM | [3] > 100 µM | [4] > 100 µM | [5] > 100 µM | [6] > 100 µM | [7] > 100 µM | [8] > 100 µM | [9] > 100 µM | [10] > 100 µM | [11] > 100 µM | [12] > 100 µM | [13] > 100 µM | [14] > 100 µM | [15] > 100 µM | [16] > 100 µM | [17] > 100 µM

N#CC(c1ccccc1)N(CCCCCCN(C(=O)c1ccccc1)C(C#N)c1ccccc1)C(=O)c1ccccc1 (stereo unspecified)
inactive: [18] 31.1 µM | [1] 18.1 µM | [2] 50.4 µM | [3] 25.1 µM | [5] 26.1 µM | [6] 52.6 µM | [7] 35.2 µM | [8] 47.6 µM | [9] 32.8 µM | [11] 16 µM | [19] 35 µM | [12] 28.2 µM | [13] 27.9 µM | [20] 41.5 µM | [14] 41.4 µM | [15] 52.4 µM | [16] 52.6 µM | [17] 26.3 µM

O/N=C(\C=N\O)c1ccc2c(c1)Sc1ccccc1O2
inactive: [18] 14.5 µM | [1] 21.4 µM | [2] 16.5 µM | [3] 18 µM | [4] 17.5 µM | [5] 24.9 µM | [7] 22.1 µM | [8] 15.7 µM | [9] 12.1 µM | [10] 3.53 µM | [19] 25.1 µM | [12] 14.8 µM | [13] 22.3 µM | [20] 26.4 µM | [14] 18.1 µM | [15] 16.1 µM | [16] 26.8 µM | [17] 18.1 µM

C=CCOc1ccccc1C1(O)c2ccccc2C2=NCCCN21 (stereo unspecified)
inactive: [18] 81.1 µM | [1] 21.4 µM | [2] 56.1 µM | [3] 34.2 µM | [4] 18.9 µM | [5] 77.8 µM | [6] 16.8 µM | [7] 45.3 µM | [8] > 100 µM | [9] 30.9 µM | [11] > 100 µM | [19] 70.3 µM | [12] 20.7 µM | [13] 31 µM | [20] 17.6 µM | [14] > 100 µM | [15] 15.1 µM | [16] 46.5 µM | [17] 40.9 µM

O=c1oc(-c2ccc(O)cc2)cc2cc(O)ccc12
inactive: [18] 23 µM | [1] 20.2 µM | [2] 31.9 µM | [3] 21.2 µM | [4] 34.8 µM | [5] 23.6 µM | [6] 19.9 µM | [7] 13.2 µM | [9] 27.4 µM | [10] 25.8 µM | [11] 19.7 µM | [19] 32.7 µM | [12] 25.3 µM | [13] 39.4 µM | [20] 32.2 µM | [14] 26.3 µM | [15] 31.6 µM

CCOc1ccc(N/C(=C(/C(Cl)=C(/Cl)NCCO)[N+](=O)[O-])n2nnc3ccccc32)cc1
inactive: [18] 18.5 µM | [1] 16.1 µM | [2] 25.2 µM | [3] 37.7 µM | [4] 66.7 µM | [5] 15.2 µM | [7] 20.8 µM | [8] 20.6 µM | [9] 16.4 µM | [11] 25.2 µM | [19] 16.7 µM | [12] 25.7 µM | [13] 28 µM | [20] 34.5 µM | [14] 12.8 µM | [15] 60.1 µM | [16] 21.8 µM | [17] 21.9 µM

C=Cc1c(C)c(OC)cc2c1Oc1ccc(OC)c(C)c1CC2
inactive: [1] > 100 µM | [2] 45.7 µM | [3] > 100 µM | [4] > 100 µM | [5] > 100 µM | [6] > 100 µM | [7] > 100 µM | [8] > 100 µM | [9] 76 µM | [10] 88.5 µM | [11] 49.1 µM | [19] > 100 µM | [12] 52.6 µM | [13] > 100 µM | [20] > 100 µM | [14] > 100 µM | [15] 84.3 µM | [16] > 100 µM | [17] > 100 µM

O=[N+]([O-])c1ccccc1S(=O)(=O)N1CCCc2cc(Cl)ccc21
inactive: [18] 8.91 µM | [1] 38.7 µM | [2] 77.4 µM | [3] 16.2 µM | [4] 60.3 µM | [5] 50.8 µM | [6] 39 µM | [7] 3.46 µM | [8] > 56.5 µM | [9] 4.46 µM | [11] 18 µM | [19] > 100 µM | [12] 18 µM | [13] 23.5 µM | [20] 32.4 µM | [14] 26.9 µM | [15] 4.59 µM | [17] 23.9 µM

N/C(=N\O)NCCN1CCCCCCC1
inactive: [1] > 100 µM | [2] > 100 µM | [3] 12.1 µM | [4] > 100 µM | [5] > 100 µM | [6] 26.7 µM | [7] > 100 µM | [8] > 100 µM | [9] > 100 µM | [10] > 100 µM | [11] > 100 µM | [19] > 100 µM | [12] 28.4 µM | [13] > 100 µM | [20] > 100 µM | [14] > 100 µM | [15] > 100 µM | [17] > 100 µM

COc1ccc(CCNCCCC2c3ccccc3-c3ccccc32)cc1OC
inactive: [18] 20.4 µM | [1] 1.86 µM | [2] 16.3 µM | [3] 12.6 µM | [4] 16 µM | [5] 20.1 µM | [6] 13.6 µM | [7] 4.09 µM | [9] 14.7 µM | [10] 15.9 µM | [11] 17.2 µM | [19] 15.8 µM | [12] 16.3 µM | [13] 15.6 µM | [20] 16.3 µM | [14] 18.9 µM | [15] 13.5 µM | [16] 12.9 µM | [17] 16.4 µM

CC1(C)Cc2c(c3ccccc3c3nc4c(nc23)c2c(c3ccccc34)OC(C)(C)C2)O1
inactive: [18] > 100 µM | [1] > 100 µM | [2] > 100 µM | [3] > 100 µM | [4] > 100 µM | [5] 39.4 µM | [6] > 100 µM | [8] > 100 µM | [9] > 100 µM | [10] > 100 µM | [11] > 100 µM | [19] > 100 µM | [12] > 100 µM | [13] > 100 µM | [20] > 100 µM | [14] > 100 µM | [16] > 100 µM | [17] > 100 µM

Cc1cc(N(CCC#N)CCC#N)ccc1/C=N/NC(=O)c1cc(Cl)ccc1O
inactive: [1] > 100 µM | [2] > 100 µM | [3] > 100 µM | [4] 60.3 µM | [5] 59.7 µM | [6] > 100 µM | [8] > 100 µM | [9] > 100 µM | [10] 37.3 µM | [11] > 100 µM | [19] > 100 µM | [12] > 100 µM | [13] 54.7 µM | [20] > 100 µM | [14] > 100 µM | [15] 34.1 µM | [16] 49.3 µM | [17] > 100 µM

Nc1nc(-c2ccccc2)nc2c1[n+]([O-])c1ccccc1[n+]2[O-]
inactive: [18] > 100 µM | [1] > 100 µM | [2] > 100 µM | [3] > 100 µM | [4] > 100 µM | [5] > 100 µM | [6] > 100 µM | [7] > 100 µM | [8] > 100 µM | [9] > 100 µM | [10] > 100 µM | [11] > 100 µM | [12] > 100 µM | [13] > 100 µM | [20] > 100 µM | [14] > 100 µM | [16] > 100 µM | [17] > 100 µM

N#C/C(=C\c1ccc2[nH]ccc2c1)C(=O)c1ccc(O)c(O)c1
inactive: [18] 24.5 µM | [1] > 67.8 µM | [2] 57.9 µM | [3] > 53.6 µM | [4] > 52 µM | [5] 44.2 µM | [6] > 88.5 µM | [7] 48.4 µM | [9] 71.8 µM | [10] 29.4 µM | [11] 49.4 µM | [19] > 64.3 µM | [12] > 100 µM | [13] 61.4 µM | [20] > 57.4 µM | [14] 59.4 µM | [15] > 100 µM | [16] 41.6 µM | [17] 70 µM

CC(NC(=O)C(NC(=O)OC(C)(C)C)C(C)C)C(=O)NCC(=O)O (stereo not drawn) (Boc-Val-Ala-Gly-OH; configuration not given here)
inactive: [18] > 100 µM | [1] > 100 µM | [2] > 100 µM | [3] > 100 µM | [4] > 100 µM | [5] > 100 µM | [6] > 100 µM | [7] > 100 µM | [9] > 100 µM | [10] > 100 µM | [11] > 100 µM | [12] > 100 µM | [13] > 100 µM | [20] > 100 µM | [14] > 100 µM | [16] > 100 µM | [17] > 100 µM
